Assay results reported in patent publication US20250290117A1, “MOLECULAR PHENOTYPIC ANTIMICROBIAL SUSCEPTIBILITY TESTING” (priority 2024, published 2025).

Assays:
[1] = system: pathogens of clinical samples; assay: Molecular phenotypic antimicrobial susceptibility test of clinical samples, extraction DNA purification step prior to PCR (Table 6); assay type: cell-based
Experimental: (§1) Detection of Molecular Phenotypic Antimicrobial Susceptibility. Disclosed herein are the methods for the detection of phenotypic antimicrobial susceptibility via molecular methods. The present invention describes how a specimen 100 with a known microbial load is incubated and then exposed to a panel of antimicrobial agents to determine sensitivity (prevention of growth) or resistance (allowance of growth) to the specific antimicrobial agents tested utilizing molecular methods.
(§2) Sample Collection. Specimens 100 are collected from patients using sterile collection processes that are employed in routine clinical care. Specimens are transported to the testing facility in boric acid preservative.
(§3) Preparation of the Specimens for Testing. […] The process for pathogen isolation includes steps of harvesting the pathogen (e.g., via centrifugation), isolating pathogen DNA via a DNA isolation and/or purification kit, and performing PCR on the pathogen DNA via PCR components (e.g., primers, enzymes, buffers) as would be known to the skilled artisan. […] This aliquot is used for antimicrobial susceptibility testing if indicated based on the pathogen detection results. […] Specimens 100 with lower pathogen loads could also be utilized in the antibiotic susceptibility phase of testing with or without a longer incubation period.
(§4) Preparation of Antimicrobial Susceptibility Testing Plates. Antimicrobial solutions are prepared at known concentrations. The specific antimicrobials and their concentrations are selected based on the pathogen of interest and the described antimicrobial resistance breakpoints for that specimen pathogen and antimicrobial combination. These antimicrobials have been selected based on those commonly utilized by healthcare providers in routine clinical care for the specific type of suspected infection. The number and types of antimicrobials utilized can be customized based on the infection source, pathogen detected, patient-specific factors such as allergies or other health conditions (e.g., chronic kidney disease or concurrent medication use), or healthcare provider preferences such as antimicrobial availability or cost.
(§5) The antimicrobial solutions are prepared in liquid culture media (such as Muller Hinton Broth) to achieve the desired antimicrobial concentration and are then stored at −80° C. until use. For a given specimen, each antimicrobial is tested at a single or multiple antimicrobial concentration(s) which is its established breakpoints for sensitivity. The antimicrobial solutions are prepared and plated out for each specific pathogen. […] This allows for evaluation of pathogen load when no antimicrobial is present.
(§6) Specimen Exposure to Antimicrobial Agents. The 1 mL aliquot of the specimen 100 previously mixed with culture media and incubated is obtained. Using optical density measurements as a guide, the specimen 100 is diluted to 0.5 McFarland.
(§7) Antimicrobial exposure plates are typically placed into an incubator for 12-16 hours.
(§8) Nucleic Acid Amplification of Antimicrobial Agent Exposed Pathogens. The antimicrobial exposure plate is removed after the period of incubation. The specimen then undergoes a purification or lysis step. For example, the specimen may undergo a purification step (e.g., magnetic bead-based or other separation protocol to isolate genetic material). In another example, the specimen may undergo a cell lysis step. For example, buffer (e.g., lysis buffer) may be added and incubated in the thermal cycler for preparation for direct PCR. Next, the specimen may undergo a polymerase chain reaction (PCR) testing protocol, whereby a semi-quantitative PCR method is utilized. This may be completed either with or without a specific extraction protocol step. The pathogens can be individually targeted and detected, or a universal genetic sequence can be utilized to detect the antimicrobial susceptibility of the specimen as a whole.

[2] = system: pathogens of clinical samples; assay: Molecular phenotypic antimicrobial susceptibility test of clinical samples, direct PCR without a separate DNA purification step (Table 6); assay type: cell-based
Experimental: as §1, §2, §3, §4, §5, §6, §7, §8

[3] = E. coli, clinical sample of r10-r24
[4] = E. coli, clinical sample of r158-r172
[5] = E. faecalis, clinical sample of r93-r99
[6] = E. faecalis, clinical sample of r100-r106
[7] = E. faecalis, clinical sample of r100-r106, Ct Control Avg 23.073
[8] = E. faecalis, clinical sample of r107-r113, Ct Control Avg 22.144
[9] = E. faecalis, clinical sample of r114-r120
[10] = E. faecalis, clinical sample of r114-r120, Ct Control Avg 20.822
[11] = E. faecalis, clinical sample of r151-r157, Ct Control Avg 20.56
[12] = K. aerogenes, clinical sample of r136-r150
[13] = K. pneumoniae, clinical sample of r121-r135
[14] = M. morganii, clinical sample of r55-r69
[15] = M. morganii, clinical sample of r70-r84
[16] = P. mirabilis, clinical sample of r25-r39
[17] = P. mirabilis, clinical sample of r40-r54
[18] = S. aureus, clinical sample of r85-r92
[19] = E. faecalis, clinical sample of r93-r99, Ct control avg 22.011
[20] = E. faecalis, clinical sample of r100-r106, Ct control avg 21.027
[21] = E. faecalis, clinical sample of r107-r113, Ct control avg 20.529
[22] = E. faecalis, clinical sample of r151-r157, Ct control avg 18.551
[23] = S. aureus, clinical sample of r85-r92, Ct control avg 20.309
[24] = E. faecalis, clinical sample of r107-r113
[25] = E. faecalis, clinical sample of r151-r157

SMILES: CN(C)[C@@H]1C(O)=C(C(N)=O)C(=O)[C@@]2(O)C(O)=C3C(=O)c4c(O)cccc4[C@@](C)(O)[C@H]3C[C@@H]12 [Tetracycline]
- Molecular Antibiotic Susceptibility Result [1, 3]: Sensitive (Antimicrobial wells with pathogen load detected below the control wells (typically >2 cycle thresholds later) may be reported as Sensitive)
- Ct ([1]; E. coli, clinical sample of r10-r24, Ct Control Avg 18.112): 28.574
- Molecular Antibiotic Susceptibility Result [1, 4]: Sensitive (Antimicrobial wells with pathogen load detected below the control wells (typically >2 cycle thresholds later) may be reported as Sensitive)
- Ct ([1]; E. coli, clinical sample of r158-r172, Ct Control Avg 20.146): 34.28
- Molecular Antibiotic Susceptibility Result [1, 5]: Resistant
- Ct ([1]; E. faecalis, clinical sample of r93-r99, Ct Control Avg 22.987): 19.484
- Molecular Antibiotic Susceptibility Result [1, 6]: Resistant
- Ct [1, 7]: 23.171
- Ct [1, 8]: 28.949
- Molecular Antibiotic Susceptibility Result [1, 9]: Resistant
- Ct [1, 10]: 21.77
- Ct [1, 11]: 23.723
- Molecular Antibiotic Susceptibility Result [1, 12]: Sensitive (Antimicrobial wells with pathogen load detected below the control wells (typically >2 cycle thresholds later) may be reported as Sensitive)
- Ct ([1]; K. aerogenes, clinical sample of r136-r150, Ct Control Avg 19.994): 37.04
- Molecular Antibiotic Susceptibility Result [1, 13]: Sensitive (Antimicrobial wells with pathogen load detected below the control wells (typically >2 cycle thresholds later) may be reported as Sensitive)
- Ct ([1]; K. pneumoniae, clinical sample of r121-r135, Ct Control Avg 24.272): 30.426
- Molecular Antibiotic Susceptibility Result [1, 14]: Resistant
- Ct ([1]; M. morganii, clinical sample of r55-r69, Ct Control Avg 28.86): 26.617
- Molecular Antibiotic Susceptibility Result [1, 15]: Sensitive (Antimicrobial wells with pathogen load detected below the control wells (typically >2 cycle thresholds later) may be reported as Sensitive)
- Molecular Antibiotic Susceptibility Result [1, 16]: Resistant
- Ct ([1]; P. mirabilis, clinical sample of r25-r39, Ct Control Avg 26.064): 24.94
- Molecular Antibiotic Susceptibility Result [1, 17]: Resistant
- Ct ([1]; P. mirabilis, clinical sample of r40-r54, Ct Control Avg 26.987): 23.424
- Molecular Antibiotic Susceptibility Result [1, 18]: Resistant
- Ct ([1]; S. aureus, clinical sample of r85-r92, Ct Control Avg 24.32): 15.029
- Molecular Antibiotic Susceptibility Result [2, 3]: Sensitive (Antimicrobial wells with pathogen load detected below the control wells (typically >2 cycle thresholds later) may be reported as Sensitive)
- Ct ([2]; E. coli, clinical sample of r10-r24, Ct control avg 12.97): 26.521
- Molecular Antibiotic Susceptibility Result [2, 4]: Sensitive (Antimicrobial wells with pathogen load detected below the control wells (typically >2 cycle thresholds later) may be reported as Sensitive)
- Ct ([2]; E. coli, clinical sample of r158-r172, Ct control avg 12.894): 30.717
- Molecular Antibiotic Susceptibility Result [2, 5]: Resistant
- Ct [2, 19]: 21.199
- Molecular Antibiotic Susceptibility Result [2, 6]: Resistant
- Ct [2, 20]: 20.684
- Ct [2, 21]: 28.789
- Molecular Antibiotic Susceptibility Result [2, 9]: Resistant
- Ct ([2]; E. faecalis, clinical sample of r114-r120, Ct control avg 20.909): 21.446
- Ct [2, 22]: 21.132
- Molecular Antibiotic Susceptibility Result [2, 12]: Sensitive (Antimicrobial wells with pathogen load detected below the control wells (typically >2 cycle thresholds later) may be reported as Sensitive)
- Ct ([2]; K. aerogenes, clinical sample of r136-r150, Ct control avg 13.854): 30.787
- Molecular Antibiotic Susceptibility Result [2, 13]: Sensitive (Antimicrobial wells with pathogen load detected below the control wells (typically >2 cycle thresholds later) may be reported as Sensitive)
- Ct ([2]; K. pneumoniae, clinical sample of r121-r135, Ct control avg […]): 27.163
- Molecular Antibiotic Susceptibility Result [2, 14]: Resistant
- Ct ([2]; M. morganii, clinical sample of r55-r69, Ct control avg 12.09): 9.923
- Molecular Antibiotic Susceptibility Result [2, 15]: Resistant
- Ct ([2]; M. morganii, clinical sample of r70-r84, Ct control avg 11.677): 12.206
- Molecular Antibiotic Susceptibility Result [2, 16]: Resistant
- Ct ([2]; P. mirabilis, clinical sample of r25-r39, Ct control avg 11.801): 10.301
- Molecular Antibiotic Susceptibility Result [2, 17]: Resistant
- Ct ([2]; P. mirabilis, clinical sample of r40-r54, Ct control avg 10.06): 11.498
- Molecular Antibiotic Susceptibility Result [2, 18]: Resistant
- Ct [2, 23]: 22.653

SMILES: CN[C@H](CC(C)C)C(=O)N[C@H]1C(=O)N[C@@H](CC(N)=O)C(=O)N[C@H]2C(=O)N[C@H]3C(=O)N[C@H](C(=O)N[C@H](C(=O)O)c4cc(O)cc(O)c4-c4cc3ccc4O)[C@H](O)c3ccc(c(Cl)c3)Oc3cc2cc(c3O[C@@H]2O[C@H](CO)[C@@H](O)[C@H](O)[C@H]2O[C@H]2C[C@](C)(N)[C@H](O)[C@H](C)O2)Oc2ccc(cc2Cl)[C@H]1O [Vancomycin]
- Molecular Antibiotic Susceptibility Result [1, 5]: Sensitive (Antimicrobial wells with pathogen load detected below the control wells (typically >2 cycle thresholds later) may be reported as Sensitive)
- Molecular Antibiotic Susceptibility Result [1, 6]: sensitive
- Ct [1, 7]: 37.981
- Molecular Antibiotic Susceptibility Result [1, 24]: sensitive
- Ct [1, 8]: 32.184
- Molecular Antibiotic Susceptibility Result [1, 9]: Sensitive (Antimicrobial wells with pathogen load detected below the control wells (typically >2 cycle thresholds later) may be reported as Sensitive)
- Ct [1, 10]: 34.122
- Molecular Antibiotic Susceptibility Result [1, 25]: Sensitive (Antimicrobial wells with pathogen load detected below the control wells (typically >2 cycle thresholds later) may be reported as Sensitive)
- Ct [1, 11]: Undet
- Molecular Antibiotic Susceptibility Result [1, 18]: Resistant
- Molecular Antibiotic Susceptibility Result [2, 5]: Sensitive (Antimicrobial wells with pathogen load detected below the control wells (typically >2 cycle thresholds later) may be reported as Sensitive)
- Ct [2, 19]: 30.062
- Molecular Antibiotic Susceptibility Result [2, 6]: sensitive
- Ct [2, 20]: 35.563
- Molecular Antibiotic Susceptibility Result [2, 24]: sensitive
- Ct [2, 21]: 29.81
- Molecular Antibiotic Susceptibility Result [2, 9]: Sensitive (Antimicrobial wells with pathogen load detected below the control wells (typically >2 cycle thresholds later) may be reported as Sensitive)
- Molecular Antibiotic Susceptibility Result [2, 25]: Sensitive (Antimicrobial wells with pathogen load detected below the control wells (typically >2 cycle thresholds later) may be reported as Sensitive)
- Ct [2, 22]: 35.428
- Molecular Antibiotic Susceptibility Result [2, 18]: Resistant
- Ct [2, 23]: 21.258
